# Patent publication US20240368351A1, “FACTORS CONTROLLING DRUG RELEASE IN CROSS-LINKED POLY(VALEROLACTONE) BASED MATRICES” (Pendant Biosciences, Inc., priority 2019, published 2024)
# Columns and labels:
# [1] = Solubility of Drug X in organic solvents and water; type: physicochemical
# [2] = In vitro drug release from microparticles; type: physicochemical
# Source text: There is no significant difference with Mesh, NaCl, and EtOH for release rate. Drug X loaded MPs show insufficient washing (high t=0) and burst release in a day.
# Method: We will use a dialysis bag to properly change release media without loss of microparticle. This will prevent accumulation of Drug X degradation over time and allow more accurate release analysis. We will examine release with Drug X-loaded microparticle in different media (i.e. only PBS at pH 7.5).
# (§1) Method: Drug X-loaded microparticle in release media will be taken after 1 hrs and utilized to extract residue Drug X from microparticle.
# [3] = Extraction and recovery of Drug X from discs and microparticles (stability in polymer matrix); type: physicochemical
# Method: In Table 53, a study was conducted in which a Drug X-loaded disc was placed in 10 mL of dichloromethane (DCM) for 8 hr at room temperature to extract Drug X, and DCM was removed using a rotary evaporator at 25° C. This extraction process was repeated two times. The extracted drug dissolved in a acetonitrile (ACN) was filtered using 0.45 μm a nylon membrane and measured by HPLC for extraction efficiency.
# as §1
# We took out a disc after 2 weeks of release and freeze fried it. Then, the residual Drug X remaining in discs was extracted using dichloromethane to confirm Drug X stability in the disc.
# [4] = cited from earlier work
# [5] = test system: blood plasma protein; details: cited from earlier work
# [6] = logP (octanol-water partition) by shake tube method; type: physicochemical; details: read-out: Calculated LogP
# [7] = Drug solubility in different release media (PBS with Tween 80 or SDS); type: physicochemical; details: release media (PBS with Tween 80 or SDS), 37 °C, pH 7.4, aqueous with cosolvent or surfactant or cyclodextrin, thermodynamic from solid
# Method: Mikkelsen, L. M., Enzyme solubility in liquid detergent and use of detergent composition. […] Crotts, G.; Park, T. G. Protein delivery from poly(lactic-co-glycolic acid) biodegradable microspheres: Release kinetics and stability issues. […] FDA.
# The solutions were centrifuged at 8000 rpm for 10 minutes, and a 1 ml aliquot was withdrawn, filtered through a 0.45 μm nylon membrane, and analyzed by HPLC.
# [8] = pure PBS pH 7.4; cited from earlier work
# [9] = test system: L929 mouse fibroblast cells
# Method: Cytotoxicity evaluation: CPs were incubated in culture media at a surface area to volume ratio of 1.25 cm^2/mL for 48 h. […] The L929 fibroblast cells were cultured and routinely maintained in Dulbecco's modified Eagle's medium (DMEM) supplemented with 10% fetal bovine serum (FBS) and 1% penicillin-streptomycin. The cells were grown in a monolayer in tissue culture flasks incubated at 37° C. and 5% CO2 at 90% relative humidity. Cells were counted and seeded in 96-well plates at a density of 2000 cells/well, which was determined to be the optimum cell density. After 24 h incubation, growth media was aspirated and replaced with either 150 μL CPs extracts at a surface area to volume ratio of 1.25 cm^2/mL or the same volume of extraction media that had been serially diluted to the above concentrations. Following 24, 48, and 72 h incubation periods, cell viability was evaluated using the MTS assay. Specifically, the extraction media was aspirated and replaced with 200 μL of fresh media followed by 20 μL of MTS reagent, and the cells were incubated at 37° C. for 1.5 h. Cell viability was measured by optical absorbance at 2=490 nm using a Cytation™ 5 Cell Imaging Multi-Mode Reader (BioTek, Vermont). […]
# The cytotoxicities of the cross-linked matrices were evaluated in L929 mouse fibroblast cells using the extraction dilution method (FIG. 16).
compound,measurement,setting,value
CC(C)OC(=O)[C@H](C)N[P@](=O)(CO[C@H](C)Cn1cnc2c(N)ncnc21)Oc1ccccc1 [Drug X],Solubility in EtOH/DMSO (50/50),[1]; 5 mg per 100 mL or μL,"Soluble, and"
same,Solubility in DMSO/Water (50/50),[1]; 5 mg per 200 mL or μL,Insoluble
same,Solubility in Water,[1]; 5 mg per 200 mL or μL,Insoluble
same,time within which most of Drug X is released from MP,[2],≤ 1 h
same,Drug X remained inside the MP after extraction,[2]; after 1 hr release,around 100 μg
same,degradation (second HPLC peak) in release and extraction samples,"[3]; 1 hr time point, microparticles",no second peak detected
same,Drug X recovered from the extraction,[3]; after two-day release,~35%
same,drug recovered from the discs (release & extraction),"[3]; disc after 2 weeks of release, dichloromethane extraction",88-93%
same,Drug X released,[3]; during the two-day release,~50%
same,extraction efficiency,[3]; in the disc,85%
same,total recovered of the encapsulated Drug X,[3]; release plus extraction,83%-90%
same,Log P,[4],1.6
same,Water solubility,[4],(4.86 mg/mL)
same,Water solubility (words),[4],Soluble in water
same,pKa,[4],2.74
same,bound to blood plasma protein,[5],80%
"CC1(C)O[C@@H]2C[C@H]3[C@@H]4CCC5=CC(=O)C=C[C@]5(C)[C@@]4(F)[C@@H](O)C[C@]3(C)[C@]2(C(=O)CO)O1 [Triamcinolone acetonide, triamcinolone acetonide]",logP,[6],2.3
same,solubility at 48 h,[7],287 ± 56.9 µg/mL
same,TAA solubility,[8],2.1 µg/mL
high density polyethylene [HDPE],decrease in cell viability relative to the untreated control,[9],approximately 66%
